{"source": "paper PMC9151520", "about": "(Archives of Toxicology, 2022)", "key": {"[1]": {"test_system": "p53 signaling (p53RE-bla HCT-116 cells)", "assay": "cells", "format": "cell-based", "settings": "for pEC50: HCT-116"}, "[2]": {"test_system": "p53 signaling (p53RE-bla HCT-116 cells)", "assay": "cells", "settings": "Homo sapiens; for pEC50: HCT-116; for Emax: HCT-116, read-out: efficacy"}, "[3]": {"test_system": "p53 signaling (p53RE-bla HCT-116 cells)", "assay": "cells", "format": "cell-based", "settings": "for pEC50: HCT-116, 0.5 h"}, "[4]": {"test_system": "p53 signaling (p53RE-bla HCT-116 cells)", "assay": "cells", "format": "cell-based", "settings": "for pEC50 / Emax: Homo sapiens"}, "[5]": {"test_system": "p53 signaling (p53RE-bla HCT-116 cells)", "assay": "cells", "settings": "Homo sapiens"}, "[6]": {"test_system": "p53 signaling (p53RE-bla HCT-116 cells)"}, "[7]": {"test_system": "p53 signaling (p53RE-bla HCT-116 cells)", "settings": "for pEC50: read-out: p53 activation EC50"}, "[8]": {"settings": "Homo sapiens, HCT-116, read-out: efficacy"}, "[9]": {"settings": "HCT-116, read-out: EC50, p53 activation, primary screening"}, "[10]": {"settings": "HCT-116, read-out: Efficacy, p53 activation, primary screening"}}, "note": "pEC50: −log10 of the molar value. Where “and” joins values, the source holds several entries; their conditions need not be identical. Equal values may be shown once. Read-outs that look alike come from different tables or passages of the source."}
{"compound": "CCc1c2c(nc3ccc(OC(=O)N4CCC(N5CCCCC5)CC4)cc13)-c1cc3c(c(=O)n1C2)COC(=O)[C@]3(O)CC", "note": "[Irinotecan, reference compound]", "values": [{"measurement": "pEC50", "setting": "[1]; Homo sapiens", "value": 6.54}, {"measurement": "Emax", "setting": "[1]; [8]", "value": 79.9, "unit": "%"}, {"measurement": "pEC50", "setting": "[2]", "value": 6.64}, {"measurement": "Emax", "setting": "[2]", "value": 109, "unit": "%"}, {"measurement": "EC50", "setting": "[3]", "value": "Inactive"}]}
{"compound": "COP(=O)(OC)OC(=CCl)c1cc(Cl)c(Cl)cc1Cl", "note": "[Tetrachlorovinphos]", "values": [{"measurement": "Viability EC50, HLM", "setting": "p53RE-bla HCT-116 cells", "value": "inactive"}, {"measurement": "Viability EC50, No MS", "setting": "p53RE-bla HCT-116 cells", "value": "inactive"}, {"measurement": "Viability EC50, RLM", "setting": "p53RE-bla HCT-116 cells", "value": "inactive"}, {"measurement": "Viability Efficacy, HLM", "setting": "p53RE-bla HCT-116 cells", "value": "inactive"}, {"measurement": "Viability Efficacy, No MS", "setting": "p53RE-bla HCT-116 cells", "value": "inactive"}, {"measurement": "Viability Efficacy, RLM", "setting": "p53RE-bla HCT-116 cells", "value": "inactive"}, {"measurement": "p53 activation EC50, No MS", "setting": "[4]", "value": "inactive"}, {"measurement": "p53 activation Efficacy, No MS", "setting": "[4]", "value": "inactive"}, {"measurement": "pEC50", "setting": "[5]; HCT-116, read-out: p53 activation EC50, HLM", "value": 4.78}, {"measurement": "p53 activation EC50, HLM", "setting": "[6]", "value": "inactive"}]}
{"compound": "COP(=O)(OC)O/C(C)=C/C(=O)N(C)C", "note": "[Dicrotophos]", "values": [{"measurement": "Viability EC50", "setting": "p53RE-bla HCT-116 cells", "value": "inactive"}, {"measurement": "Viability efficacy", "setting": "p53RE-bla HCT-116 cells", "value": "inactive"}, {"measurement": "p53 activation EC50", "setting": "[4]", "value": "inactive"}, {"measurement": "p53 activation efficacy", "setting": "[4]", "value": "inactive"}, {"measurement": "p53 activation efficacy", "setting": "[7]", "value": 47.1617}, {"measurement": "pEC50", "setting": "[7]", "value": 4.84}, {"measurement": "pEC50", "setting": "[1]; Homo sapiens", "value": 5.04}, {"measurement": "pEC50", "setting": "[2]", "value": 4.94}, {"measurement": "Emax", "setting": "[2]", "value": 40.6, "unit": "%"}, {"measurement": "p53 activation EC50", "setting": "[6]", "value": "inactive"}, {"measurement": "pEC50", "setting": "[3]; Homo sapiens", "value": 4.94}]}
{"compound": "COP(=O)(OC)O/C(=C\\Cl)c1cc(Cl)c(Cl)cc1Cl", "note": "[Tetrachlorvinphos (Gardona), Tetrachlorvinphos]", "values": [{"measurement": "pEC50", "setting": "[1]; Homo sapiens", "value": 4.74}, {"measurement": "pEC50", "setting": "[2]", "value": 4.98}, {"measurement": "Emax", "setting": "[2]", "value": 39.9, "unit": "%"}, {"measurement": "pEC50", "setting": "[3]; Homo sapiens", "value": 5.60}]}
{"compound": "COP(=S)(OC)Oc1cc(Cl)c(Br)cc1Cl", "note": "[Bromofos]", "values": [{"measurement": "Viability EC50", "setting": "p53RE-bla HCT-116 cells", "value": "inactive"}, {"measurement": "Viability efficacy", "setting": "p53RE-bla HCT-116 cells", "value": "inactive"}, {"measurement": "p53 activation EC50", "setting": "[4]", "value": "inactive"}, {"measurement": "p53 activation efficacy", "setting": "[4]", "value": "inactive"}, {"measurement": "p53 activation efficacy", "setting": "[7]", "value": 62.741}, {"measurement": "pEC50", "setting": "[7]", "value": 4.82}, {"measurement": "EC50", "setting": "[1]", "value": "Inactive"}, {"measurement": "pEC50", "setting": "[2]", "value": 4.75}, {"measurement": "Emax", "setting": "[2]", "value": 66.6, "unit": "%"}, {"measurement": "p53 activation EC50", "setting": "[6]", "value": "inactive"}, {"measurement": "pEC50", "setting": "[3]; Homo sapiens", "value": 4.79}, {"measurement": "Emax", "setting": "[3]; [8]", "value": 40.6, "unit": "%"}]}
{"compound": "Aflatoxin B1 [reference compound]", "values": [{"measurement": "p53 activation efficacy", "setting": "[7]", "value": "77.9079 and 59.8273"}, {"measurement": "potency in the confirmation study compared to the primary screening", "setting": "[7]", "value": "tenfold higher potency"}, {"measurement": "EC50", "setting": "[1]", "value": "inactive"}, {"measurement": "pEC50", "setting": "[6]", "value": "5.35 and 5.28 and 5.52"}, {"measurement": "EC50", "setting": "[3]", "value": "inactive"}]}
{"compound": "Oc1c(Cl)c(Cl)cc(Cl)c1Cl", "note": "[2,3,5,6-Tetrachlorophenol]", "values": [{"measurement": "EC50, viability, cherry pick confirmation", "setting": "p53RE-bla HCT-116 cells", "value": "inactive"}, {"measurement": "EC50, viability, primary screening", "setting": "p53RE-bla HCT-116 cells", "value": "inactive"}, {"measurement": "Efficacy, viability, cherry pick confirmation", "setting": "p53RE-bla HCT-116 cells", "value": "inactive"}, {"measurement": "Efficacy, viability, primary screening", "setting": "p53RE-bla HCT-116 cells", "value": "inactive"}, {"measurement": "pEC50", "setting": "[4]; HCT-116, read-out: EC50, p53 activation, cherry pick confirmation", "value": 4.53}, {"measurement": "pEC50", "setting": "[4]; [9]", "value": 4.61}, {"measurement": "Emax", "setting": "[4]; HCT-116, read-out: Efficacy, p53 activation, cherry pick confirmation", "value": 31.3, "unit": "%"}, {"measurement": "Emax", "setting": "[4]; [10]", "value": 36.3, "unit": "%"}, {"measurement": "pEC50", "setting": "[5]; [9]", "value": 4.68}, {"measurement": "Emax", "setting": "[5]; [10]", "value": 35.1, "unit": "%"}, {"measurement": "EC50, p53 activation, cherry pick confirmation", "setting": "[7]", "value": "inactive"}, {"measurement": "EC50, p53 activation, primary screening", "setting": "[7]", "value": "inactive"}, {"measurement": "Efficacy, p53 activation, cherry pick confirmation", "setting": "[7]", "value": "inactive"}, {"measurement": "Efficacy, p53 activation, primary screening", "setting": "[7]", "value": "inactive"}, {"measurement": "EC50, p53 activation, cherry pick confirmation", "setting": "[6]", "value": "inactive"}, {"measurement": "Efficacy, p53 activation, cherry pick confirmation", "setting": "[6]", "value": "inactive"}]}
{"compound": "CCOP(=S)(OCC)SC(CCl)N1C(=O)c2ccccc2C1=O", "note": "(stereo not shown) [Dialifor]", "values": [{"measurement": "Viability EC50", "setting": "p53RE-bla HCT-116 cells", "value": "inactive"}, {"measurement": "Viability efficacy", "setting": "p53RE-bla HCT-116 cells", "value": "inactive"}, {"measurement": "p53 activation EC50", "setting": "[4]", "value": "inactive"}, {"measurement": "p53 activation efficacy", "setting": "[4]", "value": "inactive"}, {"measurement": "pEC50", "setting": "[5]; HCT-116, read-out: p53 activation EC50", "value": 5.52}, {"measurement": "p53 activation efficacy", "setting": "[7]", "value": 52.0707}, {"measurement": "p53 activation EC50", "setting": "[6]", "value": "inactive"}]}
